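Grown in 96-well plates, cells were treated for 48 hours with each compound at five concentrations. Insufficient inhibition: endpoint recorded as highest concentration tested. Abbreviation: GI50, concentration required for 50% inhibition of growth.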 Activity calls are given as the source filed them. Rule as the data show it: active = GI50 up to about 1.1 µM and inactive = higher.
Columns and labels:
Experiment in all cases: DTP human tumour cell line panel, 48 h
[1] = test system: 786-0
[2] = test system: A498
[3] = test system: HCC 2998
[4] = test system: HOP-62
[5] = test system: KM12
[6] = test system: LOX IMVI
[7] = test system: M19-MEL
[8] = test system: MOLT-4
[9] = test system: Malme-3M
[10] = test system: OVCAR-4
[11] = test system: SK-MEL-28
[12] = test system: SK-MEL-5
[13] = test system: U-251
[14] = test system: UO-31
[15] = test system: HL-60
[16] = test system: Hs-578T
[17] = test system: MCF7
[18] = test system: MDA-N
[19] = test system: NCI/ADR-RES
[20] = test system: T47D

Measured: GI50

CN(C)c1ccc(/C=C(\NC(=O)c2ccccc2)c2nc3ccc4c(c3[nH]2)C(=O)c2ccccc2C4=O)cc1
inactive: [1] 25.4 µM | [2] 6.61 µM | [3] > 100 µM | [4] 61.9 µM | [5] 5.19 µM | [6] 20.2 µM | [7] > 100 µM | [8] 2.65 µM | [9] > 100 µM | [10] 47.2 µM | [11] 27.5 µM | [12] 34.3 µM | [13] 31.5 µM | [14] 1.33 µM

COc1ccc(OC)c2[nH]c(Sc3c([N+](=O)[O-])ncn3C)nc12
inactive: [1] 29.3 µM | [2] 31 µM | [3] 20.3 µM | [4] > 100 µM | [5] 43.1 µM | [6] 79.1 µM | [7] 20.6 µM | [9] 13.5 µM | [10] 22.9 µM | [11] 24.3 µM | [12] 17.6 µM | [13] 28.9 µM | [14] 28.6 µM

CC1(C)CC(C)(C)CC(O)(C2(O)CC(C)(C)CC(C)(C)C2)C1
inactive: [1] > 100 µM | [3] > 100 µM | [15] > 100 µM | [4] > 100 µM | [5] > 100 µM | [6] > 100 µM | [7] > 100 µM | [8] > 100 µM | [9] > 100 µM | [11] > 100 µM | [12] > 100 µM | [13] > 100 µM | [14] > 100 µM

CC(=O)N(O)Cc1ccccc1
inactive: [1] > 100 µM | [3] > 100 µM | [15] > 100 µM | [4] > 100 µM | [5] > 100 µM | [6] > 100 µM | [7] > 100 µM | [8] > 100 µM | [9] > 100 µM | [10] > 100 µM | [11] > 100 µM | [12] > 100 µM | [13] > 100 µM | [14] > 100 µM

Cn1c(-c2ccccc2)c/c(=N\NS(C)(=O)=O)c2cc(S(=O)(=O)O)ccc21
inactive: [1] > 100 µM | [3] > 100 µM | [15] > 100 µM | [4] > 100 µM | [5] > 100 µM | [6] > 100 µM | [7] > 100 µM | [8] > 100 µM | [9] > 100 µM | [10] > 100 µM | [11] > 100 µM | [12] > 100 µM | [13] > 100 µM | [14] > 100 µM

[N-]=[N+]=NC1=C(c2ccccc2)C(=O)c2cccc3cccc1c23
inactive: [1] 15.2 µM | [2] 1.52 µM | [3] 11.4 µM | [15] 16.6 µM | [4] 15.2 µM | [16] 10.1 µM | [5] 8.02 µM | [6] 14.4 µM | [17] 26.9 µM | [18] 12.2 µM | [8] 2.55 µM | [9] 18.8 µM | [19] 45.5 µM | [10] 46.7 µM | [11] 33.3 µM | [12] 2.77 µM | [20] 5.12 µM | [13] > 100 µM | [14] 26.1 µM

Cc1nc2c(n1Cc1ccc(F)cc1)C(=O)c1ccccc1C2=O
inactive: [1] 13.1 µM | [3] 87.3 µM | [15] 5.48 µM | [4] 27.7 µM | [5] 42.2 µM | [6] 7.18 µM | [7] 3.62 µM | [8] 5.4 µM | [9] 8.89 µM | [10] 31.1 µM | [11] > 100 µM | [12] 10.3 µM | [13] 6.56 µM | [14] > 100 µM

CC(C)(C)OC(=O)NCCCCC1NC(=O)[C@@H]2Cc3c([nH]c4ccccc34)C(c3ccccc3)N2C1=O (stereo partly specified)
inactive: [1] 25.1 µM | [2] 72.6 µM | [3] 12.8 µM | [15] 21.5 µM | [4] 30.3 µM | [16] 12.1 µM | [5] 18.9 µM | [6] 19.9 µM | [17] 35.2 µM | [18] 29.4 µM | [8] 15.6 µM | [9] 31.1 µM | [19] 35.1 µM | [10] 48.5 µM | [11] 64.6 µM | [12] 27.6 µM | [20] 18 µM | [13] 35.1 µM | [14] 10.7 µM

Oc1ccc2ccccc2c1-c1c(Nc2ccccc2)ccc2ccccc12
inactive: [1] 17.8 µM | [2] 18.1 µM | [3] 14 µM | [15] 19.5 µM | [4] 16.1 µM | [16] 19.9 µM | [5] 17.9 µM | [6] 19.4 µM | [17] 13 µM | [18] 6.22 µM | [8] 17.7 µM | [9] 8.53 µM | [19] > 34.7 µM | [10] 12.3 µM | [11] 13.9 µM | [12] 13.6 µM | [20] 18.8 µM | [13] 21.8 µM | [14] 15.7 µM

CC1=C(C)SC(=C2Sc3c(n(C)c(=O)n(C)c3=O)S2)S1
inactive: [1] 17.4 µM | [2] 27.4 µM | [3] > 100 µM | [15] > 100 µM | [4] 18.7 µM | [16] 61.4 µM | [5] > 100 µM | [6] 48.5 µM | [17] > 100 µM | [18] 47.6 µM | [8] > 100 µM | [9] > 100 µM | [19] 55.3 µM | [10] 21.4 µM | [11] > 100 µM | [12] 33.7 µM | [20] > 100 µM | [13] 4.14 µM | [14] 59 µM

O=C1CC(c2ccc(Cl)cc2)C2(C(=O)NC(=S)NC2=O)C(c2ccc(Cl)cc2)C1 (stereo unspecified)
inactive: [1] 36.5 µM | [2] 15.9 µM | [3] 25.8 µM | [15] 20.8 µM | [4] 26.8 µM | [16] 30 µM | [5] 18.5 µM | [6] 28.3 µM | [17] 17.3 µM | [18] 17.2 µM | [8] 25.5 µM | [9] 21.4 µM | [19] 20.8 µM | [10] 17.5 µM | [11] 16.1 µM | [12] 17 µM | [20] 23.7 µM | [13] 29.2 µM | [14] 23.9 µM

N=C(NCc1ccccc1)N/N=C\c1ccnc2ccccc12
inactive: [1] 13.7 µM | [2] 12.5 µM | [3] 2.1 µM | [15] 14.3 µM | [4] 16 µM | [16] 18.8 µM | [5] 15.9 µM | [6] 11.5 µM | [17] 11.7 µM | [18] 10.9 µM | [8] 12.6 µM | [9] 10.2 µM | [19] 15.8 µM | [10] 11.7 µM | [11] 12 µM | [12] 6.52 µM | [20] 1.41 µM | [13] 15.6 µM | [14] 10.4 µM
